Measurements from patent US5639751A, “N-acyl-2,3-benzodiazepine derivatives for treating acute and chronic neurodegenerative disorders” (priority 1990, dated 1997).
Structures can show the parent of a compound that is named as a salt. Where two headings read alike, the source gives them in different places.

Columns and labels:
[1] = test system: male CFLP mice; experiment: Anticonvulsive effect in mice, electroshock test; format: in vivo; conditions: Mus musculus, po, read-out: ED50 p.o., ES (electroshock)
Protocol: (§1) The anticonvulsive effect of the compounds of the formula (I) was measured by using the electroshock test [J. Pharmacol. Exp. Ther. 106, 319 (1952)], furthermore by using various chemical agents such as pentetrazole [J. Pharmacol. Exp. Ther. 108, 168 (1953)], strychnine [J. Pharmacol. Exp. Ther. 129, 75 (1960)], bemegride, nicotine and 4-aminopyridine. The test compounds were orally administered in 3 doses, to 10 male CFLP mice per dose.

[2] = test system: male CFLP mice; experiment: Anticonvulsive effect in mice, pentetrazole; format: in vivo; conditions: Mus musculus, po, read-out: ED50 p.o., Pentetrazole
Protocol: as §1

[3] = test system: CFLP mice; experiment: Inclined screen test in mice; format: in vivo; conditions: Mus musculus, ip, read-out: ED50 i.p., inclined screen test
From the text: In Randall's inclined screen test [J. Pharmacol. Exp. Ther. 129, 163 (1960)] the compounds were applied in 3 i.p. doses to 10 CFLP mice per dose.

[4] = test system: mice; experiment: Rotarod test in mice; format: in vivo; conditions: Mus musculus, ip, read-out: ED50 i.p., rotarod test
From the text: The rotarod test was used to measure muscular tone and motor co-ordination [J. Am. Pharm. Assoc. 46, 208 (1957)].

[5] = test system: male CFLP mice; experiment: Anticonvulsive effect in mice, strychnine; format: in vivo; conditions: Mus musculus, po, read-out: ED50 p.o., Strychnine
Protocol: as §1

[6] = test system: male CFLP mice; experiment: Anticonvulsive effect in mice, bemegride; format: in vivo; conditions: Mus musculus, po, read-out: ED50 p.o., Bemegride
Protocol: as §1

[7] = test system: male CFLP mice; experiment: Anticonvulsive effect in mice, nicotine; format: in vivo; conditions: Mus musculus, po
Protocol: as §1

[8] = test system: male CFLP mice; experiment: Anticonvulsive effect in mice, 4-aminopyridine; format: in vivo; conditions: Mus musculus, po, read-out: ED50 p.o., 4-AP (4-aminopyridine)
Protocol: as §1

[9] = Acute toxicity in mice; conditions: mouse, in vivo
Protocol: The cause of mortality was respiratory insufficiency developing within 1 to 2 hours after i.p. administration and within 10 to 20 hours after oral application.

Row | Compound | ED50 ([1]; mice, p.o.) | ED50 ([2]; mice, p.o.) | ED50 [3] | ED50 [4] | ED50 [1] | ED50 [2] | ED50 [5] | ED50 [6] | ED50 [7] | ED50 [8] | ED50 ([6]; mice, p.o.) | ED50 ([8]; mice, p.o.) | LD50 ([9]; ip, read-out: LD50 i.p.) | LD50 ([9]; po, read-out: LD50 p.o.) | ED50 ([3]; mice, i.p.) | ED50 ([4]; mice, i.p.)
1 | CC1=NN=C(c2ccc(NC(=O)C(C)N)cc2)c2cc3c(cc2C1)OCO3 (racemic) [Example 69] | 57 mg/kg | > 100 mg/kg |  |  |  |  |  |  |  |  |  |  |  |  |  | 
2 | NCC(CC(=O)O)c1ccc(Cl)cc1 (stereo not drawn) [Baclofen, β-(aminomethyl)-4-chlorobenzeneprioionic acid, reference compound] |  |  | 26 mg/kg | 12.5 mg/kg |  |  |  |  |  |  |  |  |  |  |  | 
3 | CCC(=O)N1N=C(c2ccc(N)cc2)c2cc3c(cc2CC1C)OCO3 (centres unmarked) [Example 18] |  |  | 31 mg/kg | 7.5 mg/kg | 17.5 mg/kg | 29 mg/kg | > 100 mg/kg | 20 mg/kg | 16 mg/kg | 16 mg/kg |  |  |  |  |  | 
4 | CC(=O)N(C(C)=O)c1ccc(C2=NN(C(C)=O)C(C)Cc3cc4c(cc32)OCO4)cc1 (centres unmarked) [Example 39, 1-(4-Diacetylaminophenyl)-3-acetyl-4-methyl-7,8-methylenedioxy-3,4-dihydro-5H-2,3-benzodiazepine] | 53 mg/kg | 170 mg/kg |  |  |  |  |  |  |  |  | > 200 mg/kg | 29 mg/kg | 271 mg/kg | > 600 mg/kg |  | 
5 | CC(=O)Nc1ccc(C2=NN(C(C)=O)C(C)Cc3cc4c(cc32)OCO4)cc1 (centres unmarked) [Example 42, 1-(4-Acetylaminophenyl)-3-acetyl-4-methyl-7,8-methylenedioxy-3,4-dihydro-5H-2,3-benzodiazepine] | 24 mg/kg | 33 mg/kg |  |  |  |  | 28 mg/kg |  | 155 mg/kg |  | 24 mg/kg | 34 mg/kg | 120 mg/kg | 185 mg/kg | 42 mg/kg | 8.1 mg/kg
6 | CCC(=O)Nc1ccc(C2=NN(C(=O)CC)C(C)Cc3cc4c(cc32)OCO4)cc1 (centres unmarked) [Example 45, 1-(4-Propionylaminophenyl)-3-propionyl-4-methyl-7,8-methylenedioxy-3,4-dihydro-5H-2,3-benzodiazepine] | 27 mg/kg | 44 mg/kg |  |  |  |  | > 100 mg/kg |  | 23 mg/kg |  | 51 mg/kg | 34 mg/kg | 98.4 mg/kg | 206 mg/kg | 35 mg/kg | 10 mg/kg
7 | CC(=O)N1N=C(c2ccc(NC=O)cc2)c2cc3c(cc2CC1C)OCO3 (centres unmarked) [Example 46] | 20 mg/kg | 57 mg/kg |  |  |  |  | > 100 mg/kg |  | 80 mg/kg |  | 56 mg/kg | 17 mg/kg | 173 mg/kg | 162 mg/kg |  | 
8 | CCC(=O)Nc1ccc(C2=NN(C(C)=O)C(C)Cc3cc4c(cc32)OCO4)cc1 (centres unmarked) [Example 48] | 10.5 mg/kg | 30.5 mg/kg |  |  |  |  | > 100 mg/kg |  | 25 mg/kg |  | 33 mg/kg | 20 mg/kg | 103 mg/kg | 149 mg/kg | 20.5 mg/kg | 7.2 mg/kg
9 | CCC(=O)N1N=C(c2ccc(NC(C)=O)cc2)c2cc3c(cc2CC1C)OCO3 (centres unmarked) [Example 49] | 25 mg/kg | 53 mg/kg |  |  |  |  | > 100 mg/kg |  | 45 mg/kg |  | 43 mg/kg | 28 mg/kg |  |  | 36 mg/kg | 9.4 mg/kg
10 | COCC(=O)Nc1ccc(C2=NN(C(C)=O)C(C)Cc3cc4c(cc32)OCO4)cc1 (centres unmarked) [Example 52] | 17.5 mg/kg | 36 mg/kg |  |  |  |  | > 100 mg/kg |  | 13.5 mg/kg |  | 29 mg/kg | 24 mg/kg | 117 mg/kg | 188 mg/kg | 21 mg/kg | 4.8 mg/kg
11 | CCC(=O)Nc1ccc(C2=NN(C=O)C(C)Cc3cc4c(cc32)OCO4)cc1 (centres unmarked) [Example 60] | 24 mg/kg | 62 mg/kg |  |  |  |  |  |  |  |  |  |  |  |  |  | 
12 | CC(=O)N1N=C(c2ccc(NC(=O)C(F)(F)F)cc2)c2cc3c(cc2CC1C)OCO3 (centres unmarked) [Example 62] | 12.5 mg/kg | 56 mg/kg |  |  |  |  | > 100 mg/kg |  | 31 mg/kg |  | 36 mg/kg | 29 mg/kg | 136 mg/kg | 160 mg/kg | 25.5 mg/kg | 7.8 mg/kg
13 | CC(=O)N1N=C(c2ccc(NC(=O)CN(C)C)cc2)c2cc3c(cc2CC1C)OCO3 (centres unmarked) [Example 107, 1-[4-(N,N-dimethylglycylamino)phenyl]-3-acetyl-4-methyl-7,8-methylenedioxy-3,4-dihydro-5H-2,3-benzodiazepine] | 23.5 mg/kg | 120 mg/kg |  |  |  |  | 22.8 mg/kg |  | 34.2 mg/kg |  | 25.4 mg/kg | 36.8 mg/kg |  |  |  | 
14 | CCN(CC)CC(=O)Nc1ccc(C2=NN(C(C)=O)C(C)Cc3cc4c(cc32)OCO4)cc1 (centres unmarked) [Example 108, 1-[4-(N,N-diethylglycylamino)phenyl]-3-acetyl-4-methyl-7,8-methylenedioxy-3,4-dihydro-5H-2,3-benzodiazepine] | 27 mg/kg | > 100 mg/kg |  |  |  |  |  |  |  |  |  |  |  |  |  | 
15 | CC(=O)N1N=C(c2ccc(NC(=O)CN3CCCC3)cc2)c2cc3c(cc2CC1C)OCO3 (centres unmarked) [Example 109, 1-[4-(1-Pyrrolidinoacetylamino)phenyl]-3-acetyl-4-methyl-7,8-methylenedioxy-3,4-dihydro-5H-2,3-benzodiazepine hydrogen fumarate] | 21 mg/kg | > 100 mg/kg |  |  |  |  |  |  |  |  |  |  |  |  |  | 
16 | CNC(=O)N1N=C(c2ccc(NC(=O)CN)cc2)c2cc3c(cc2CC1C)OCO3 (centres unmarked) [Example 115, 1-(4-Glycylaminophenyl)-3-methylcarbamoyl-4-methyl-7,8-methylenedioxy-3,4-dihydro-5H-2,3-benzodiazepine] | 17.1 mg/kg | 23.9 mg/kg |  |  |  |  |  |  |  |  |  |  | 90.7 mg/kg | 200 to 250 mg/kg | 16.1 mg/kg | 7.3 mg/kg
17 | O=C1NC(=O)C(c2ccccc2)(c2ccccc2)N1 [Phenytoin, 5,5-diphenyl-2,4-imidazolidinedione, reference compound] | 10 mg/kg | > 400 mg/kg |  |  |  |  | 160 mg/kg |  | 12 mg/kg |  | > 200 mg/kg |  |  |  |  | 
